The IC50 is the concentration at which inhibition is half-maximal.

One assay concerns BC. Nature of the assay: (§1) Cytotoxicity against human BC cells. It counts as functional, cell-based.
For a further assay, the system named is KB. Nature of the assay: Cytotoxicity against human KB cells. Type of assay: functional, cell-based.
For assay [1], the target named is T1, Prostaglandin G/H synthase 2 (Mus musculus) (UniProt Q05769).
T1 sequence (whole entry): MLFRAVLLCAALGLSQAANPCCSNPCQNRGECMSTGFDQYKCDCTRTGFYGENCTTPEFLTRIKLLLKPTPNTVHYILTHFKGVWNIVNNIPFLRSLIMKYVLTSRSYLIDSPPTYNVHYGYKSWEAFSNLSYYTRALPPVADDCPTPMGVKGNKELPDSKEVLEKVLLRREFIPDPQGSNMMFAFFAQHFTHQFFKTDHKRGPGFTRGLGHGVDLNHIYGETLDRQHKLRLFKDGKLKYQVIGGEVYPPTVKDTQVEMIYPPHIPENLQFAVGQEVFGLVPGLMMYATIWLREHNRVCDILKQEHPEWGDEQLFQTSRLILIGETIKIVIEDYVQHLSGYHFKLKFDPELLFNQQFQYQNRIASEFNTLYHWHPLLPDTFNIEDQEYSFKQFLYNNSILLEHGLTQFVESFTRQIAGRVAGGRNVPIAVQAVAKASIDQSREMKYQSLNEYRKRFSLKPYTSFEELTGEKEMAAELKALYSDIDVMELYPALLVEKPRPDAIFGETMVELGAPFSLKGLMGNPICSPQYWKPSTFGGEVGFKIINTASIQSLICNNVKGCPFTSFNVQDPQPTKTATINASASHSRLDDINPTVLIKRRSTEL
Nature of the assay: (§2) Inhibition of COX2 in mouse lung fibroblast assessed as PGE2 production by radioimmunoassay.

In a further assay the test system is NCI-H187. As to the kind of experiment: Cytotoxicity against human NCI-H187 cells. Type of assay: functional, cell-based.
Assay [2] concerns Radical scavenging activity. As to the kind of experiment: Antioxidant activity assessed as DPPH radical scavenging activity by DPPH stable radical assay. Background: Loss of DPPH colour is used to gauge radical scavenging.
Assay [3] concerns the target T2, Prostaglandin G/H synthase 2 (Mus musculus, UniProt Q05769).
T2 sequence (Q05769 whole entry): T1 sequence (whole entry)
The description is as §2.

A short description of assay [4]: as §1. Type of assay: functional, cell-based.
The next assay deals with Vero. As to the kind of experiment: Cytotoxicity against african green monkey Vero cells. The settings on record: Chlorocebus sabaeus. Type of assay: cell-based.

In brackets after ≈: the same amount, converted by molar mass. Activity calls are given as the source filed them. The rule behind the calls is not given here.

As for `COc1cc(O)c2c(c1)O[C@H](c1ccc(OC)c(OC)c1C/C=C(\C)CCC=C(C)C)CC2=O`, the outcome (in the assay with BC; with KB; in assay [1]; in the assay on NCI-H187) was inactive.
On to `CC1=CC(=O)CC(C)(C)[C@@]1(O)/C=C/[C@@H](C)O`, for which the result (in the assay with BC; in the assay with KB; in assay [1]; in the assay on NCI-H187) was inactive.
Turning to `CC(C)=CCC/C(C)=C/Cc1c([C@@H]2CC(=O)c3c(O)cc(O)cc3O2)ccc(O)c1O` [NYMPHAEOL B], the IC50 in assay [2] was 13 µM; in assay [3], 8.72 µM. Also, the outcome with BC, in the assay on KB and with NCI-H187 was inactive.
For `COc1cc2c(c(O)c1CC=C(C)C)C(=O)C[C@@H](c1ccc(OC)c(OC)c1C/C=C(\C)CCC=C(C)C)O2`, the IC50 in assay [2] is 599 µM. Also, the outcome (in the assay with BC; with KB; in assay [1]; with NCI-H187) was inactive.
In the case of `C=C(C)C(O)CC/C(C)=C/Cc1c(O)cc2c(c1O)C(=O)C[C@@H](c1ccc(O)c(O)c1)O2` (some centres undefined) [TANARIFLAVANONE D], the figures for the IC50 (in assay [2]; in assay [4]; with Vero) were 20 µM, 6.5 µg/mL (≈ 14.8 µM) and 19.5 µg/mL (≈ 44.3 µM), respectively. In addition, the outcome in the assay on NCI-H187 was inactive.
As to `COc1ccc([C@@H]2CC(=O)c3c(cc(OC)c(CC=C(C)C)c3O)O2)c(C/C=C(\C)CCC=C(C)C)c1O`, the IC50 in assay [2] came out at 413 µM. Also, the outcome (with BC; with KB; in assay [1]; in the assay on NCI-H187) was inactive.
Turning to `Cc1cc(C(C)(C)C)c(O)c(C(C)(C)C)c1` [BUTYLATED HYDROXYTOLUENE], in assay [2], the IC50 was determined as 30 µM.
With `C=C(C)C(O)Cc1c(O)cc2c(c1O)C(=O)C[C@@H](c1ccc(O)c(O)c1C/C=C(\C)CCC=C(C)C)O2` (some centres undefined) [TANARIFLAVANONE C], the half-inhibitory concentration (IC50) in assay [2] amounted to 33 µM. Also, the result (with BC; with KB; in assay [1]; in the assay on NCI-H187) was inactive.
Turning to `COc1cc(O)c2c(c1)O[C@H](c1ccc(OC)c(O)c1C/C=C(\C)CCC=C(C)C)CC2=O`, the outcome (with BC; in the assay with KB; in assay [1]; in the assay with NCI-H187) was inactive.
As to `CC1=CC(=O)CC(C)(C)[C@@]1(O)CC[C@@H](C)O`, the outcome (with BC; in the assay with KB; in assay [1]; in the assay with NCI-H187) was inactive.
As to `CC(C)=CCCC1(C)C=Cc2c([C@@H]3CC(=O)c4c(cc(O)c(CC=C(C)C)c4O)O3)ccc(O)c2O1` (some centres undefined), the result (with BC; in the assay with KB; in assay [1]; in the assay on NCI-H187) was inactive.
For the compound `COc1ccc([C@@H]2CC(=O)c3c(cc(OC)c(C/C=C(\C)CCC=C(C)C)c3O)O2)cc1OC`, the outcome (in the assay on BC; in the assay on KB; in assay [1]; with NCI-H187) was inactive.
`CC(C)=CCC/C(C)=C/Cc1c(O)cc2c(c1O)C(=O)C[C@@H](c1ccc(O)c(O)c1)O2` [NYMPHAEOL A]: the IC50 in assay [2] was determined as 14 µM; in assay [4] it was 2.7 µg/mL (≈ 6.36 µM); with Vero, 3.8 µg/mL (≈ 8.95 µM); in the assay on KB, 4.6 µg/mL (≈ 10.8 µM); in the assay with NCI-H187 it was 1.5 µg/mL (≈ 3.53 µM).
With `CC(C)=CCC/C(C)=C/Cc1c([C@@H]2CC(=O)c3c(cc(O)c(CC=C(C)C)c3O)O2)ccc(O)c1O` [NYMPHAEOL C], in assay [2], the IC50 came to 15 µM. Also, the outcome (in the assay on BC; in the assay with KB; in assay [1]; in the assay on NCI-H187) was inactive.
